Assay results as given in US10072006B2 (MUTABILIS, priority 2015, dated 2018).

Tests used:
OXA-11 = target: T1, OXA-11 (Pseudomonas aeruginosa, UniProt Q06778); test: β-lactamase inhibitory activity, determination of IC50 (nitrocefin hydrolysis); type: biochemical
T1 construct: made in house; host or cells: E. coli

AmpC (PAE) = AmpC (PAE) (Pseudomonas aeruginosa, UniProt P24735); test: biochemical
[1] = test system: K. pneumoniae 200047 (TEM-1, SHV-32, CTX-M-15, OXA-1); test: microbe, parasite or virus in culture; type: cell-based; settings: for MIC: Klebsiella pneumoniae, 18 h, read-out: MIC compounds of the invention alone
[2] = test system: E. cloacae UFR85 (TEM-1, CTX-M-15, derepressed ampC); test: microbe, parasite or virus in culture; type: cell-based; settings: for MIC: Enterobacter cloacae, 18 h, read-out: MIC compounds of the invention alone
Procedure: […] […] Microplates were incubated for 16-20 h at 35° C. in ambient air. The MIC of the compounds was defined as the lowest concentration of said compounds that prevented bacterial growth as read by visual inspection.

[3] = test system: K. oxytoca UFR21 (TEM-1, CTX-M-15, OXA-48); test: microbe, parasite or virus in culture; type: cell-based; settings: for MIC: Klebsiella oxytoca, 18 h, read-out: MIC compounds of the invention alone
E. coli RGN238 (OXA-1) = test: MIC of compounds and synergy with ceftazidime (broth microdilution); type: cell-based; settings: strain RGN238 (E. coli); for MIC: Escherichia coli, 18 h, read-out: MIC compounds of the invention alone; for MIC, combination of CAZ and compounds of the invention: MIC of ceftazidime with compound fixed at 4 μg/mL
Procedure, shortened: (§1)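 Each compound, alone and in DMSO, is spotted onto sterile polystyrene plates, which are then incubated in ambient air at 35° C for 16 to 20 h. Inhibition of bacterial growth, judged visually, defines the MIC as the lowest effective concentration.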

[4] = test system: E. coli UFR52 (TEM-1, SHV-12, IMP-8); test: as above; type: cell-based; settings: strain UFR52 (E. coli); for MIC: Escherichia coli, 18 h, read-out: MIC compounds of the invention alone; for MIC, combination of CAZ and compounds of the invention: MIC of ceftazidime with compound fixed at 4 μg/mL
Procedure, shortened: as §1

[5] = test system: K. pneumoniae 6299 (TEM-1, SHV-11, OXA-163); test: as above; type: cell-based; settings: strain 6299 (K. pneumoniae); for MIC: Klebsiella pneumoniae, 18 h, read-out: MIC compounds of the invention alone; for MIC, combination of CAZ and compounds of the invention: MIC of ceftazidime with compound fixed at 4 μg/mL
Procedure, shortened: as §1

[6] = test system: P. aeruginosa UFR48 (VIM-2); test: as above; type: cell-based; settings: strain UFR48 (P. aeruginosa); for MIC: Pseudomonas aeruginosa, 18 h, read-out: MIC compounds of the invention alone
Procedure, shortened: as §1

[7] = test system: P. aeruginosa UFR93 (Derepressed ampC, OprD-, MexAB+, MexXY+); test: as above; type: cell-based; settings: for MIC: Pseudomonas aeruginosa, 18 h, read-out: MIC compounds of the invention alone
Procedure, shortened: as §1

[8] = test system: K. pneumoniae BAA-1898 (TEM-1, SHV-11, SHV-12, KPC-2); test: as above; type: cell-based; settings: strain BAA-1898 (K. pneumoniae); for MIC: Klebsiella pneumoniae, BAA1898, read-out: MIC compounds of the invention alone; for MIC, combination of CAZ and compounds of the invention: MIC of ceftazidime with compound fixed at 4 μg/mL
Procedure, shortened: as §1

[9] = test system: P. aeruginosa UFR47 (VIM-1); test: as above; type: cell-based; settings: strain UFR47 (P. aeruginosa); for MIC: Pseudomonas aeruginosa, 18 h, read-out: MIC compounds of the invention alone
Procedure, shortened: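 Read-out is visual: the MIC is the lowest concentration at which no bacterial growth is seen. Plates held compounds spotted from DMSO solutions and were kept at 35° C in ambient air for 16-20 h.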

[10] = test system: P. aeruginosa CIP105250 (OXA-15); test: as above; type: cell-based; settings: strain CIP105250 (P. aeruginosa); for MIC, combination of CAZ and compounds of the invention: MIC of ceftazidime with compound fixed at 4 μg/mL; for MIC: Pseudomonas aeruginosa, 18 h, read-out: MIC compounds of the invention alone
Procedure, shortened: as §1

[11] = test system: E. cloacae P99 (Derepressed ampC); test: as above; type: cell-based; settings: strain P99 (E. cloacae); for MIC: Enterobacter cloacae, 18 h, read-out: MIC compounds of the invention alone; for MIC, combination of CAZ and compounds of the invention: MIC of ceftazidime with compound fixed at 4 μg/mL
Procedure, shortened: as §1

[12] = test system: P. aeruginosa UFR59 (IMP-29); test: as above; type: cell-based; settings: strain UFR59 (P. aeruginosa); for MIC: Pseudomonas aeruginosa, 18 h, read-out: MIC compounds of the invention alone
Procedure, shortened: as §1

[13] = test system: K. pneumoniae UFR77 (CMY-2); test: as above; type: cell-based; settings: strain UFR77 (K. pneumoniae); for MIC: Klebsiella pneumoniae, 18 h, read-out: MIC compounds of the invention alone; for MIC, combination of CAZ and compounds of the invention: MIC of ceftazidime with compound fixed at 4 μg/mL
Procedure, shortened: as §1

[14] = test system: C. murliniae 210102 (VIM-4); test: as above; type: cell-based; settings: strain 210102 (C. murliniae); for MIC: 18 h, read-out: MIC compounds of the invention alone; for MIC, combination of CAZ and compounds of the invention: MIC of ceftazidime with compound fixed at 4 μg/mL
Procedure, shortened: as §1

[15] = test system: P. aeruginosa CIP107051 (TEM-24); test: as above; type: cell-based; settings: strain CIP107051 (P. aeruginosa); for MIC, combination of CAZ and compounds of the invention: MIC of ceftazidime with compound fixed at 4 μg/mL; for MIC: Pseudomonas aeruginosa, 18 h, read-out: MIC compounds of the invention alone
Procedure, shortened: as §1

[16] = test system: E. coli 131119 (TEM-1, OXA-48); test: as above; type: cell-based; settings: strain 131119 (E. coli); for MIC: Escherichia coli, 18 h, read-out: MIC compounds of the invention alone; for MIC, combination of CAZ and compounds of the invention: MIC of ceftazidime with compound fixed at 4 μg/mL
Procedure, shortened: as §1

[17] = test system: K. pneumoniae UFR24 (TEM-1, SHV-2, SHV-11, OXA-1, OXA-48, OXA-47); test: as above; type: cell-based; settings: strain UFR24 (K. pneumoniae); for MIC: Klebsiella pneumoniae, 18 h, read-out: MIC compounds of the invention alone; for MIC, combination of CAZ and compounds of the invention: MIC of ceftazidime with compound fixed at 4 μg/mL
Procedure, shortened: as §1

[18] = test system: E. coli UFR18 (CTX-M-15, OXA-204); test: as above; type: cell-based; settings: strain UFR18 (E. coli); for MIC: Escherichia coli, 18 h, read-out: MIC compounds of the invention alone; for MIC, combination of CAZ and compounds of the invention: MIC of ceftazidime with compound fixed at 4 μg/mL
Procedure, shortened: as §1

[19] = test system: E. coli UFR32 (TEM-1, VEB-1, OXA-10); test: as above; type: cell-based; settings: strain UFR32 (E. coli); for MIC: Escherichia coli, 18 h, read-out: MIC compounds of the invention alone; for MIC, combination of CAZ and compounds of the invention: MIC of ceftazidime with compound fixed at 4 μg/mL
Procedure, shortened: as §1

TEM-1 = target: T2, TEM-1 (Escherichia coli, UniProt P62593); test: β-lactamase inhibitory activity, determination of IC50 (nitrocefin hydrolysis); type: biochemical; settings: class (A), 30 min pre-incubation
T2 construct: made in house; host or cells: E. coli
T2 sequence (P62593 24-286 limits assumed): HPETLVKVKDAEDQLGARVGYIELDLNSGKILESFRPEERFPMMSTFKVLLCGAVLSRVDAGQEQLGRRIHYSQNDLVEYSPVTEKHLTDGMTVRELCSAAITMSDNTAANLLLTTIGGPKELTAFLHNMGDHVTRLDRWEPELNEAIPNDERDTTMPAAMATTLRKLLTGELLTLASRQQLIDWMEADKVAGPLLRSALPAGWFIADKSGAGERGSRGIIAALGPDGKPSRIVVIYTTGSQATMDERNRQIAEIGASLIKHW

[20] = MIC of ceftazidime with compound fixed at 4 μg/mL

AmpC (PAE), sequence (P24735 27-397): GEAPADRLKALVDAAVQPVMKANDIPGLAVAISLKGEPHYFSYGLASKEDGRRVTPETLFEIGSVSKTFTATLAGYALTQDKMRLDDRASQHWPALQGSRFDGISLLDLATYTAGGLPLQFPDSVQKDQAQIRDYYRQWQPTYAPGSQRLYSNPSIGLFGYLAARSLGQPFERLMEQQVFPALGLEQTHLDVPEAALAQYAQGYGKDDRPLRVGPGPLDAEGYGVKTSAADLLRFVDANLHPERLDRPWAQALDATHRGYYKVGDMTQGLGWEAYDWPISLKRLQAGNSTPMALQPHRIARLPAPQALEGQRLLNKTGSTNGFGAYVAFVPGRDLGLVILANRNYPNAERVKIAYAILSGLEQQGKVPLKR
T1 sequence (Q06778 21-266): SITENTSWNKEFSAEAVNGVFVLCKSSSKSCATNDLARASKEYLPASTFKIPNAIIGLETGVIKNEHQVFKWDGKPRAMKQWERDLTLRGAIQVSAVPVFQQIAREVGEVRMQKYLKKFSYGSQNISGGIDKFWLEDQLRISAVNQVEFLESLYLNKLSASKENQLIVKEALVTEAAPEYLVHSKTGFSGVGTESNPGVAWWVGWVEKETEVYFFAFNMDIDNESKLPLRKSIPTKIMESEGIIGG

SMILES | IC50 (OXA-11) | IC50 (AmpC (PAE)) | MIC [1] | MIC [2] | MIC [3] | MIC (E. coli RGN238 (OXA-1)) | MIC, combination of CAZ and compounds of the invention (E. coli RGN238 (OXA-1)) | MIC [4] | MIC, combination of CAZ and compounds of the invention [4] | MIC [5] | MIC, combination of CAZ and compounds of the invention [5] | MIC [6] | MIC [7] | MIC [8] | MIC, combination of CAZ and compounds of the invention [8] | MIC [9] | MIC, combination of CAZ and compounds of the invention [10] | MIC [10] | MIC [11] | MIC, combination of CAZ and compounds of the invention [11] | also measured
NC[C@@H]1C(c2ncco2)=C[C@@H]2CN1C(=O)N2OS(=O)(=O)[O-].O=C(O)C(F)(F)F.[Na+] [Example 5, Sodium and 2,2,2-trifluoroacetate [(2S,5R)-2-(azaniumylmethyl)-7-oxo-3-oxazol-2-yl-1,6-diazabicyclo[3.2.1]oct-3-en-6-yl] sulfate] | 430 nM | 12000 nM | 16 µg/mL | 8 µg/mL | 32 µg/mL | 16 µg/mL | <0.25 µg/mL | 4 µg/mL | <0.25 µg/mL | > 32 µg/mL | 8 µg/mL | 2 µg/mL | 4 µg/mL | 16 µg/mL | ≤0.125 µg/mL | 1 µg/mL | <0.25 µg/mL | 4 µg/mL | ≤ 0.016 µg/mL | <0.25 µg/mL | MIC, combination of CAZ and compounds of the invention ([1]; MIC of ceftazidime with compound fixed at 4 μg/mL, strain 200047 (K. pneumoniae)): <0.25 µg/mL; MIC, combination of CAZ and compounds of the invention ([2]; MIC of ceftazidime with compound fixed at 4 μg/mL, strain UFR85 (E. cloacae)): <0.25 µg/mL; MIC, combination of CAZ and compounds of the invention ([3]; MIC of ceftazidime with compound fixed at 4 μg/mL, strain UFR21 (K. oxytoca)): <0.25 µg/mL; MIC [12]: 2 µg/mL; MIC [13]: > 32 µg/mL; MIC, combination of CAZ and compounds of the invention [13]: <0.25 µg/mL; MIC [14]: 4 µg/mL; MIC, combination of CAZ and compounds of the invention [14]: <0.25 µg/mL; MIC, combination of CAZ and compounds of the invention [15]: <0.25 µg/mL; MIC [15]: 2 µg/mL; MIC [16]: 0.063 µg/mL; MIC, combination of CAZ and compounds of the invention [16]: <0.25 µg/mL; MIC [17]: > 32 µg/mL; MIC, combination of CAZ and compounds of the invention [17]: <0.25 µg/mL; MIC [18]: ≤ 0.016 µg/mL; MIC, combination of CAZ and compounds of the invention [18]: <0.25 µg/mL; MIC [19]: 0.063 µg/mL; MIC, combination of CAZ and compounds of the invention [19]: <0.25 µg/mL; IC50 (TEM-1): 110 nM
NC[C@@H]1C(c2nccs2)=C[C@@H]2CN1C(=O)N2OS(=O)(=O)[O-].O=C(O)C(F)(F)F.[Na+] [Example 2, Sodium and 2,2,2-trifluoroacetate [(2S,5R)-2-(azaniumylmethyl)-7-oxo-3-thiazol-2-yl-1,6-diazabicyclo[3.2.1]oct-3-en-6-yl] sulfate] | 6.8 nM | 110 nM | 16 µg/mL | 16 µg/mL | 16 µg/mL | 8 µg/mL | ≤0.125 µg/mL | 4 µg/mL | <0.25 µg/mL | > 32 µg/mL | 4 µg/mL | 2 µg/mL | 4 µg/mL | 16 µg/mL | ≤0.125 µg/mL | 2 µg/mL | ≤0.125 µg/mL | 8 µg/mL | ≤ 0.016 µg/mL | <0.25 µg/mL | MIC, combination of CAZ and compounds of the invention [6, 20]: <0.25 µg/mL; MIC, combination of CAZ and compounds of the invention ([7]; MIC of ceftazidime with compound fixed at 4 μg/mL, strain UFR93 (P. aeruginosa)): <0.25 µg/mL; MIC, combination of CAZ and compounds of the invention [9, 20]: <0.25 µg/mL; MIC, combination of CAZ and compounds of the invention [12, 20]: <0.25 µg/mL; MIC [12]: 8 µg/mL; MIC [13]: 32 µg/mL; MIC, combination of CAZ and compounds of the invention [13]: 2 µg/mL; MIC [14]: 4 µg/mL; MIC, combination of CAZ and compounds of the invention [14]: ≤0.125 µg/mL; MIC, combination of CAZ and compounds of the invention [15]: <0.25 µg/mL; MIC [15]: 2 µg/mL; MIC [16]: ≤ 0.016 µg/mL; MIC, combination of CAZ and compounds of the invention [16]: <0.25 µg/mL; MIC [17]: > 32 µg/mL; MIC, combination of CAZ and compounds of the invention [17]: 0.25 µg/mL; MIC [18]: ≤ 0.016 µg/mL; MIC, combination of CAZ and compounds of the invention [18]: <0.25 µg/mL; MIC [19]: ≤ 0.016 µg/mL; MIC, combination of CAZ and compounds of the invention [19]: <0.25 µg/mL; IC50 (TEM-1): 1.7 nM
